# Results published in PubChem BioAssay (NCI).
#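 Abbreviation: GI50, concentration required for 50% inhibition of growth. Definition used: TGI = concentration required for complete inhibition of growth.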
# Assays:
# Assay in all cases: inhibition of tumour cell growth, NCI panel, 384-well format
# COLO 205 colon = test system: COLO 205 colon
# KM12 colon = test system: KM12 colon
# DU-145 prostate = test system: DU-145 prostate
# OVCAR-8 ovarian = test system: OVCAR-8 ovarian
# MDA-MB-468 breast = test system: MDA-MB-468 breast
# SK-MEL-2 melanoma = test system: SK-MEL-2 melanoma
# HOP-92 NSCLC = test system: HOP-92 NSCLC
# NCI-H322M lung = test system: NCI-H322M lung
# SNB-19 CNS = test system: SNB-19 CNS
# MDA-MB-231 breast = test system: MDA-MB-231 breast
# MDA-MB-435 melanoma = test system: MDA-MB-435 melanoma
# ACHN renal = test system: ACHN renal
# M14 melanoma = test system: M14 melanoma
# RXF 393 renal = test system: RXF 393 renal
# MCF7 breast = test system: MCF7 breast
# BT-549 breast = test system: BT-549 breast
# SK-MEL-28 melanoma = test system: SK-MEL-28 melanoma
# SW-620 colon = test system: SW-620 colon
# K-562 leukemia = test system: K-562 leukemia
# HS 578T breast = test system: HS 578T breast
# LOX IMVI melanoma = test system: LOX IMVI melanoma
# NCI-H460 NSCLC = test system: NCI-H460 NSCLC
# SF-539 CNS = test system: SF-539 CNS
# NCI-H23 lung = test system: NCI-H23 lung
# OVCAR-3 ovarian = test system: OVCAR-3 ovarian
# U251 glioblastoma = test system: U251 glioblastoma
# OVCAR-5 ovarian = test system: OVCAR-5 ovarian
# EKVX NSCLC = test system: EKVX NSCLC
# OVCAR-4 ovarian = test system: OVCAR-4 ovarian
# SR leukemia = test system: SR leukemia
# CCRF-CEM leukemia = test system: CCRF-CEM leukemia
# A498 renal = test system: A498 renal
# SF-268 CNS = test system: SF-268 CNS
# HCC-2998 colon = test system: HCC-2998 colon
# HL-60(TB) leukemia = test system: HL-60(TB) leukemia
# NCI/ADR-RES ovarian = test system: NCI/ADR-RES ovarian
# NCI-H226 lung = test system: NCI-H226 lung
# UO-31 renal = test system: UO-31 renal
# SK-MEL-5 melanoma = test system: SK-MEL-5 melanoma
# MOLT-4 leukemia = test system: MOLT-4 leukemia
# UACC-62 melanoma = test system: UACC-62 melanoma
# HT29 colon = test system: HT29 colon
# IGROV1 ovarian = test system: IGROV1 ovarian
# TK-10 renal = test system: TK-10 renal
# A549 NSCLC = test system: A549 NSCLC
# MALME-3M melanoma = test system: MALME-3M melanoma
# SF-295 CNS = test system: SF-295 CNS
smiles,measurement,setting,value
COc1ncc(-c2nc3c(n2C(C)C)[C@H](c2ccc(Cl)cc2)N(c2cc(Cl)cn(C)c2=O)C3=O)c(OC)n1,GI50,COLO 205 colon,62.6 µM
same,TGI,COLO 205 colon,> 100 µM
same,GI50,KM12 colon,49.8 µM
same,TGI,KM12 colon,> 100 µM
same,GI50,DU-145 prostate,64.4 µM
same,TGI,DU-145 prostate,> 100 µM
same,GI50,OVCAR-8 ovarian,66.1 µM
same,TGI,OVCAR-8 ovarian,> 100 µM
same,GI50,MDA-MB-468 breast,17.3 µM
same,TGI,MDA-MB-468 breast,39.6 µM
same,GI50,SK-MEL-2 melanoma,> 100 µM
same,TGI,SK-MEL-2 melanoma,> 100 µM
same,GI50,HOP-92 NSCLC,24.8 µM
same,TGI,HOP-92 NSCLC,> 92.2 µM
same,GI50,NCI-H322M lung,> 96 µM
same,TGI,NCI-H322M lung,> 100 µM
same,GI50,SNB-19 CNS,> 94.8 µM
same,TGI,SNB-19 CNS,> 100 µM
same,GI50,MDA-MB-231 breast,44.6 µM
same,TGI,MDA-MB-231 breast,> 100 µM
same,GI50,MDA-MB-435 melanoma,60.3 µM
same,TGI,MDA-MB-435 melanoma,> 100 µM
same,GI50,ACHN renal,13.1 µM
same,TGI,ACHN renal,47.8 µM
same,GI50,M14 melanoma,48.5 µM
same,TGI,M14 melanoma,> 100 µM
same,GI50,RXF 393 renal,35.5 µM
same,TGI,RXF 393 renal,> 89.3 µM
same,GI50,MCF7 breast,24.7 µM
same,TGI,MCF7 breast,> 100 µM
same,GI50,BT-549 breast,36.2 µM
same,TGI,BT-549 breast,> 100 µM
same,GI50,SK-MEL-28 melanoma,> 62.3 µM
same,TGI,SK-MEL-28 melanoma,> 100 µM
same,GI50,SW-620 colon,53.5 µM
same,TGI,SW-620 colon,97.8 µM
same,GI50,K-562 leukemia,33.2 µM
same,TGI,K-562 leukemia,> 100 µM
same,GI50,HS 578T breast,33.3 µM
same,TGI,HS 578T breast,> 100 µM
same,GI50,LOX IMVI melanoma,18.9 µM
same,TGI,LOX IMVI melanoma,> 100 µM
same,GI50,NCI-H460 NSCLC,14.2 µM
same,TGI,NCI-H460 NSCLC,45.5 µM
same,GI50,SF-539 CNS,> 73 µM
same,TGI,SF-539 CNS,> 100 µM
same,GI50,NCI-H23 lung,60.6 µM
same,TGI,NCI-H23 lung,> 100 µM
same,GI50,OVCAR-3 ovarian,33.3 µM
same,TGI,OVCAR-3 ovarian,90 µM
same,GI50,U251 glioblastoma,65.4 µM
same,TGI,U251 glioblastoma,> 100 µM
same,GI50,OVCAR-5 ovarian,> 100 µM
same,TGI,OVCAR-5 ovarian,> 100 µM
same,GI50,EKVX NSCLC,58.7 µM
same,TGI,EKVX NSCLC,> 100 µM
same,GI50,OVCAR-4 ovarian,28.9 µM
same,TGI,OVCAR-4 ovarian,> 100 µM
same,GI50,SR leukemia,1.96 µM
same,TGI,SR leukemia,10.9 µM
same,GI50,CCRF-CEM leukemia,22.9 µM
same,TGI,CCRF-CEM leukemia,51.7 µM
same,GI50,A498 renal,9.44 µM
same,TGI,A498 renal,52.9 µM
same,GI50,SF-268 CNS,> 50.5 µM
same,TGI,SF-268 CNS,> 77.9 µM
same,GI50,HCC-2998 colon,65.7 µM
same,TGI,HCC-2998 colon,> 100 µM
same,GI50,HL-60(TB) leukemia,16.7 µM
same,TGI,HL-60(TB) leukemia,31.1 µM
same,GI50,NCI/ADR-RES ovarian,62.6 µM
same,TGI,NCI/ADR-RES ovarian,> 100 µM
same,GI50,NCI-H226 lung,13 µM
same,TGI,NCI-H226 lung,30.2 µM
same,GI50,UO-31 renal,12.4 µM
same,TGI,UO-31 renal,28.2 µM
same,GI50,SK-MEL-5 melanoma,12.7 µM
same,TGI,SK-MEL-5 melanoma,29.6 µM
same,GI50,MOLT-4 leukemia,2.06 µM
same,TGI,MOLT-4 leukemia,5.15 µM
same,GI50,UACC-62 melanoma,5.25 µM
same,TGI,UACC-62 melanoma,22.7 µM
same,GI50,HT29 colon,51.5 µM
same,TGI,HT29 colon,> 100 µM
same,GI50,IGROV1 ovarian,24.9 µM
same,TGI,IGROV1 ovarian,> 100 µM
same,GI50,TK-10 renal,> 68.4 µM
same,TGI,TK-10 renal,> 100 µM
same,GI50,A549 NSCLC,16.6 µM
same,TGI,A549 NSCLC,58.7 µM
same,GI50,MALME-3M melanoma,12.7 µM
same,TGI,MALME-3M melanoma,42.5 µM
same,GI50,SF-295 CNS,63.6 µM
same,TGI,SF-295 CNS,> 100 µM
